The term Kd denotes the equilibrium constant for the complex coming apart. A lower Kd goes with higher affinity.

Data on four molecules can be found in publication PMC11480295, “Hypecotumines A-D, new isoquinoline alkaloids with potential PCSK9 inhibition activity from Hypecoum erectum L” (Natural Products and Bioprospecting, 2024).

For the test, the target named is PCSK9 (Homo sapiens, UniProt Q8NBP7). Nature of the test: SPR (Biacore T200, PCSK9 immobilized on CM5 chip). Type of test: binding. Background: SPR reads the build-up and loss of mass on a sensor chip optically.
Sequence of PCSK9 (Q8NBP7 31-152): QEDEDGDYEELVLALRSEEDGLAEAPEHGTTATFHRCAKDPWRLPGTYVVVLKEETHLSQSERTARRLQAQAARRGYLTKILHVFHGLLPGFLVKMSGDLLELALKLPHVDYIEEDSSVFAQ
Sequence of PCSK9 (Q8NBP7 153-692): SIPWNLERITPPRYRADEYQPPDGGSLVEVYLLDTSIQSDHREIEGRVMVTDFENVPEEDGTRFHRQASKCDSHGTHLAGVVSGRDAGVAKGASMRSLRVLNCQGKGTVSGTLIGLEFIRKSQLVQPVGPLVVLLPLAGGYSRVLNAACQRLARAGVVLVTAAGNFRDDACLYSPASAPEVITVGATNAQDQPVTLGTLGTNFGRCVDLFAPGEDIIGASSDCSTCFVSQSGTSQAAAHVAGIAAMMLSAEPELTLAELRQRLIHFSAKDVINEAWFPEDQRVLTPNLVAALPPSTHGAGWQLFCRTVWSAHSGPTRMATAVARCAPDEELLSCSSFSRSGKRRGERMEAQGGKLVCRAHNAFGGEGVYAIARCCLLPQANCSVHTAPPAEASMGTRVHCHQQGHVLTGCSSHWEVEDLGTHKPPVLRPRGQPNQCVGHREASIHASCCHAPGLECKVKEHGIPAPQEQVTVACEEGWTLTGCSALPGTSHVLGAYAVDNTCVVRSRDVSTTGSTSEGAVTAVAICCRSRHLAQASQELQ

For `C=C(C1=[N+](C)CCc2cc3c(cc21)OCO3)c1ccc(OC)c(O)c1C(=O)[O-]` [compound 1, Hypecotumine A], the affinity, expressed as Kd, was 306 µM.
Consider `C=C(C1=[N+](C)CCc2cc(OC)c(OC)cc21)c1ccc(OC)c(O)c1C(=O)[O-]` [compound 2, Hypecotumine B], for which the affinity, expressed as Kd, was 248 µM.
`C=C(C1=[N+](C)CCc2cc(OC)c(OC)cc21)c1ccc2c(c1C(=O)[O-])OCO2` [compound 3, Hypecotumine C] came in with a Kd of 95.1 µM.
`C=C(C1=[N+](C)CCc2cc3c(cc21)OCO3)c1ccc2c(c1C(=O)[O-])OCO2` [compound 4, Hypecotumine D]: binding was characterised by a dissociation constant (Kd) of 59.9 µM.
